In patent US10106535B2, “Histone deacetylase inhibitors and compositions and methods of use thereof” (CHDI Foundation, Inc., priority 2013, dated 2018):
pIC50: −log10 of the molar value.

system: cellular histone deacetylase enzymatic activity in Jurkat E6-1 cells; experiment: Inhibition of cellular HDAC activity in Jurkat E6-1 cells, fluorogenic substrate Boc-Lys(Tfa)-AMC; type: cell-based; details: Homo sapiens, read-out: Cell IC50
Source text: Example 50: Analysis of Inhibition of Cellular HDAC Activity with Class IIa Histone Deacetylase (HDAC) Inhibitors
The potency of Class IIa Histone Deacetylase (HDAC) inhibitors is quantified by measuring the cellular histone deacetylase enzymatic activity using the fluorogenic substrate, Boc-Lys(Tfa)-AMC. After penetration in Jurkat E6-1 cells, the substrate is deacetylated to Boc-Lys-AMC. After cell lysis and cleavage by trypsin, the fluorophore AMC is released from the deacetylated substrate only. The fluorescence of the sample is directly related to the histone deacetylase activity in the sample.
Jurkat E6.1 cells are cultured according to standard cell culture protocols in Jurkat E6.1 Growth Media (RPMI without phenol red, 10% FBS, 10 mM HEPES, and 1 mM Sodium Pyruvate). Jurkat E6.1 cells are counted using a Coulter Counter and resuspended in Jurkat E6.1 growth media at a concentration of 75,000 cells/35 μl. 35 μl or 75,000 cells is seeded into Greiner microtitre assay plates. The plates are then incubated at 37° C. and 5% CO2 while other assay components are being prepared.
Serial dilutions of the HDAC inhibitors and control reference compound (1-(5-(3-((4-(1,3,4-oxadiazol-2-yl)phenoxy)methyl)-1,2,4-oxadiazol-5-yl)thiophen-2-yl)-2,2,2-trifluoroethanone) are made by first resuspending the lyophilized compound to a final concentration of 10 mM in 100% DMSO. Stocks of 70 μl aliquots of the 10 mM compound in DMSO are prepared and stored at −20° C. From one stock aliquot of each compound to be tested and the reference compound, a 16-point serial dilution is prepared according to Table 1 using a 125 μl 16-channel Matrix multi-channel pipette.
2 μl (200×) of each diluted solution and each control (full activity: 100% DMSO alone or full inhibition 1 mM) is stamped into V-bottom polypropylene 384-well compound plates using either the Bravo, Janus, or 12.5 μl 16-channel Matrix multi-channel pipette. Each well with the 200× compound solution is diluted 1:20 by the addition of 38 μl Jurkat assay buffer+DMSO (9.5% DMSO, RPMI without phenol red, 0.09% FBS, 9 mM Hepes, and 0.9 mM Sodium Pyruvate equilibrated to room temperature)
5× (500 μM) substrate is prepared just prior to the addition to the assay. The 5× substrate is prepared by diluting a 100 mM Boc-Lys(Tfa)-AMC in DMSO solution 1:200 by adding it drop-wise to Jurkat assay medium (RPMI without phenol red, 0.1% FBS, 10 mM Hepes, and 1 mM Sodium Pyruvate equilibrated to 37° C.) while vortexing at slow speed to prevent precipitation.
10 ml of 3× lysis buffer is prepared with 8.8 ml of 3× stock lysis buffer (50 mM Tris-HCl, pH 8.0, 137 mM NaCl, 2.7 mM KCl, 1 mM MgCl2, 1% Nonidet P40 Substitute equilibrated to room temperature) and 1.2 ml of 3 mg/ml Trypsin equilibrated to room temperature.
5 μl of each solution of 1:20 diluted compound from above is transferred to the Greiner microtitre assay plates with 75,000 cells/well using the Bravo. Cells are then incubated for 2 hours at 37° C. and 5% CO2. The assay is then started by adding 10 μl of 5× (500 μM) substrate to the assay plate using either the Bravo or 16-channel Matrix multi-channel pipette. The cells are then incubated for 3 hours at 37° C. and 5% CO2. Next, 25 μl of 3× lysis buffer is added to each well using either the 125 μl 16 channel pipette or the Bravo. The assay plate is then incubated overnight (15-16 hours) at 37° C. and 5% CO2. The following day, the plates are shaken on an orbital shaker for 1 minute at 900 rpm. Finally the top read fluorescence (Excitation: 355 nm, Emission: 460 nm) is measured using PerkinElmer EnVision.

Row | SMILES | pIC50
1 | Cc1c(F)cccc1[C@]1(C(=O)NO)C=C(c2ccccc2)CC1 [Example 1, (R)-1-(3-fluoro-2-methylphenyl)-N-hydroxy-3-phenylcyclopent-2-enecarboxamide] | < 4.30
2 | Cc1c(F)cccc1[C@@]1(C(=O)NO)C=C(c2ccccc2)CC1 [Example 2, (S)-1-(3-fluoro-2-methylphenyl)-N-hydroxy-3-phenylcyclopent-2-enecarboxamide] | 6.77
3 | Cc1ccccc1C1=C[C@@](C(=O)NO)(c2cccc(F)c2C)CC1 [Example 3, (R)-1-(3-fluoro-2-methyl-phenyl)-N-hydroxy-3-(o-tolyl)cyclopent-2-ene-1-carboxamide] | 5.34
4 | Cc1ccccc1C1=C[C@](C(=O)NO)(c2cccc(F)c2C)CC1 [Example 4, (S)-1-(3-fluoro-2-methyl-phenyl)-N-hydroxy-3-(o-tolyl)cyclopent-2-ene-1-carboxamide] | 6.44
5 | Cc1c(F)cccc1[C@]1(C(=O)NO)C=C(c2cncc(F)c2)CC1 [Example 5, (R)-1-(3-fluoro-2-methylphenyl)-3-(5-fluoropyridin-3-yl)-N-hydroxycyclopent-2-enecarboxamide] | 5.17
6 | Cc1c(F)cccc1[C@@]1(C(=O)NO)C=C(c2cncc(F)c2)CC1 [Example 6, (S)-1-(3-fluoro-2-methylphenyl)-3-(5-fluoropyridin-3-yl)-N-hydroxycyclopent-2-enecarboxamide] | 6.80
7 | Cc1c(F)cccc1[C@]1(C(=O)NO)C=C(c2cnccn2)CC1 [Example 7, (R)-1-(3-fluoro-2-methylphenyl)-N-hydroxy-3-(pyrazin-2-yl)cyclopent-2-ene carboxamide] | < 4.30
8 | Cc1c(F)cccc1[C@@]1(C(=O)NO)C=C(c2cnccn2)CC1 [Example 8, (S)-1-(3-fluoro-2-methylphenyl)-N-hydroxy-3-(pyrazin-2-yl)cyclopent-2-ene carboxamide] | 4.80
9 | Cc1ncc(C2=C[C@@](C(=O)NO)(c3cccc(F)c3C)CC2)cn1 [Example 9, (R)-1-(3-fluoro-2-methylphenyl)-N-hydroxy-3-(2-methylpyrimidin-5-yl)cyclopent-2-enecarboxamide] | < 4.30
10 | Cc1c(F)cccc1[C@@]1(C(=O)NO)C=C(c2cncc(Cl)c2)CC1 [Example 11, (S)-3-(5-chloropyridin-3-yl)-1-(3-fluoro-2-methylphenyl)-N-hydroxycyclopent-2-enecarboxamide] | 6.92
11 | Cc1c(F)cccc1[C@@]1(C(=O)NO)C=C(c2ccc3nccnc3c2)CC1 [Example 12, (S)-1-(3-fluoro-2-methylphenyl)-N-hydroxy-3-(quinoxalin-6-yl)cyclopent-2-enecarboxamide] | 7.70
12 | Cc1c(F)cccc1[C@@]1(C(=O)NO)C=C(c2ccnc(C(F)(F)F)c2)CC1 [Example 13, (S)-1-(3-fluoro-2-methylphenyl)-N-hydroxy-3-(2-(trifluoromethyl)pyridin-4-yl)cyclopent-2-enecarboxamide] | 6.57
13 | Cc1c(F)cccc1[C@@]1(C(=O)NO)C=C(c2cncnc2)CC1 [Example 14, (S)-1-(3-fluoro-2-methylphenyl)-N-hydroxy-3-(pyrimidin-5-yl)cyclopent-2-enecarboxamide] | 6.44

Now from value to compound:

Row | pIC50 | SMILES
14 | 6.51 | Cc1c(F)cccc1[C@@]1(C(=O)NO)C=C(c2ccc(F)cn2)CC1 [Example 15, (S)-1-(3-fluoro-2-methylphenyl)-3-(5-fluoropyridin-2-yl)-N-hydroxycyclopent-2-enecarboxamide]
15 | 7.00 | Cc1c(F)cccc1[C@@]1(C(=O)NO)C=C(c2ccc(C(F)(F)F)nc2)CC1 [Example 16, (S)-1-(3-fluoro-2-methylphenyl)-N-hydroxy-3-(6-(trifluoromethyl)pyridin-3-yl)cyclopent-2-enecarboxamide]
16 | 6.70 | Cc1c(F)cccc1[C@@]1(C(=O)NO)C=C(c2cncc(C(F)(F)F)c2)CC1 [Example 17, (S)-1-(3-fluoro-2-methylphenyl)-N-hydroxy-3-(5-(trifluoromethyl)pyridin-3-yl)cyclopent-2-enecarboxamide]
17 | 6.80 | Cc1c(F)cccc1[C@@]1(C(=O)NO)C=C(c2cnn(C(F)F)c2)CC1 [Example 18, (S)-3-(1-(difluoromethyl)-1H-pyrazol-4-yl)-1-(3-fluoro-2-methylphenyl)-N-hydroxycyclopent-2-enecarboxamide]
18 | 6.30 | Cc1c(F)cccc1[C@@]1(C(=O)NO)C=C(c2cc(F)cnc2C2CC2)CC1 [Example 19, (S)-3-(2-cyclopropyl-5-fluoropyridin-3-yl)-1-(3-fluoro-2-methylphenyl)-N-hydroxycyclopent-2-enecarboxamide]
19 | 6.85 | Cc1c(F)cccc1[C@@]1(C(=O)NO)C=C(c2ccc3nc(C(F)(F)F)cnc3c2)CC1 [Example 20, (S)-1-(3-fluoro-2-methylphenyl)-N-hydroxy-3-(2-(trifluoromethyl)quinoxalin-6-yl)cyclopent-2-enecarboxamide]
20 | 7.22 | Cc1c(F)cccc1[C@@]1(C(=O)NO)C=C(c2ccn3ccnc3c2)CC1 [Example 21, (S)-1-(3-fluoro-2-methylphenyl)-N-hydroxy-3-(imidazo[1,2-a]pyridin-7-yl)cyclopent-2-enecarboxamide]
21 | 7.22 | Cc1c(F)cccc1[C@@]1(C(=O)NO)C=C(c2ccc3onc(C)c3c2)CC1 [Example 22, (S)-1-(3-fluoro-2-methylphenyl)-N-hydroxy-3-(3-methylbenzo[d]isoxazol-5-yl)cyclopent-2-enecarboxamide]
22 | 6.66 | COc1ncc(C2=C[C@](C(=O)NO)(c3cccc(F)c3C)CC2)cc1F [Example 23, (S)-1-(3-fluoro-2-methylphenyl)-3-(5-fluoro-6-methoxypyridin-3-yl)-N-hydroxycyclopent-2-enecarboxamide]
23 | 7.10 | Cc1c(F)cccc1[C@@]1(C(=O)NO)C=C(c2cnc(C3CC3)nc2)CC1 [Example 24, (S)-3-(2-cyclopropylpyrimidin-5-yl)-1-(3-fluoro-2-methylphenyl)-N-hydroxycyclopent-2-enecarboxamide]
24 | 6.92 | Cc1ccc(C2=C[C@](C(=O)NO)(c3cccc(F)c3C)CC2)cn1 [Example 25, (S)-1-(3-fluoro-2-methylphenyl)-N-hydroxy-3-(6-methylpyridin-3-yl)cyclopent-2-enecarboxamide]
25 | 7.10 | Cc1ncc(C2=C[C@](C(=O)NO)(c3cccc(F)c3C)CC2)cc1Cl [Example 26, (S)-3-(5-chloro-6-methylpyridin-3-yl)-1-(3-fluoro-2-methylphenyl)-N-hydroxycyclopent-2-enecarboxamide]
26 | 6.48 | Cc1c(F)cccc1[C@@]1(C(=O)NO)C=C(c2ccnn2C)CC1 [Example 27, (S)-1-(3-fluoro-2-methylphenyl)-N-hydroxy-3-(1-methyl-1H-pyrazol-5-yl)cyclopent-2-enecarboxamide]
27 | 6.80 | Cc1c(F)cccc1[C@@]1(C(=O)NO)C=C(c2cnn(CC(F)(F)F)c2)CC1 [Example 28, (S)-1-(3-fluoro-2-methylphenyl)-N-hydroxy-3-(1-(2,2,2-trifluoroethyl)-1H-pyrazol-4-yl)cyclopent-2-enecarboxamide]
28 | 6.70 | Cc1c(F)cccc1[C@@]1(C(=O)NO)C=C(c2cccc3cnsc23)CC1 [Example 29, (S)-3-(benzo[d]isothiazol-7-yl)-1-(3-fluoro-2-methylphenyl)-N-hydroxycyclopent-2-enecarboxamide]
29 | < 4.30 | O=C(NO)C1(c2ccccc2)CC=CC1 [Example 30, N-hydroxy-1-phenyl-cyclopent-3-enecarboxamide]
30 | 4.35 | O=C(NO)C1(c2ccccc2F)CC=CC1 [Example 31, 1-(2-fluorophenyl)-N-hydroxy-cyclopent-3-enecarboxamide]
